T1: E3 ubiquitin ligase (Arabidopsis thaliana, UniProt Q9M022)
T1 construct: the ORF of the AtAIRP2 gene was subcloned into pMAL-X vector in-frame with MBP; made in house; host or cells: Escherichia coli BL21-CodonPlus (DE3) RIL
T1 sequence (Q9M022 1-242): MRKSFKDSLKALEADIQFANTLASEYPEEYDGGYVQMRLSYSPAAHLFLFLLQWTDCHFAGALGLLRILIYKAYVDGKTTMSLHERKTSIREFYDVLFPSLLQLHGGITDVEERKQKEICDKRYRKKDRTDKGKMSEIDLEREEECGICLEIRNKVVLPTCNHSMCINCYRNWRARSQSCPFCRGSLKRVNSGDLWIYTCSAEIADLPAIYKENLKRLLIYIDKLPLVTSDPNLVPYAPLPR

B1: AtAIRP2 protein: RING protein encoded by At5g01520 (SEQ ID NO:2), tested as maltose-binding protein fusion (protein)
chain: T1 sequence (Q9M022 1-242)
modifications: left off: large carriers

Columns and labels:
AtAIRP2 gene promoter = assay: Histochemical GUS assay of AtAIRP2 promoter activity; format: in vivo, Arabidopsis thaliana; settings: 100 μM ABA, 3 hours
Method: […] After removal of the acetone, the plant was washed 3 times with rincing solution containing 50 mM NaPO4, 1 mM K3Fe(CN)6, and 1 mM K4Fe(CN)6, and immersed in 2 mM X-Gluc (5-bromo-4-chloro-3-indolyl glucuronide, sigma) and vacuumed for 1 min. After staining at 37° C. in the dark until the color was changed, the plant was incubated in 90% ethanol to remove chlorophyll.
(§1) The AtAIRP2 gene expressions in various abiotic stresses were analyzed by RT-PCR. After treatments of low-temperature (12 hours and 24 hours), drought (1 hour and 2 hours), salt (1.5 hour and 3 hours) and ABA hormone (1.5 hour and 3 hours) stresses, RNA from each of samples was extracted to analyze the gene expression patterns. As a result, it was determined that the gene expression levels of stress treatments were increased than those of non-stress treatments, thereby the AtAIRP2 gene expression is induced by salt, low-temperature, drought and ABA hormone stresses (FIG. 1). In addition, the AtAIRP2 protein expressions in various abiotic stresses were analyzed by histochemical GUS assay. After treatments of ABA hormone (3 hours) and drought (2 hours) stresses, the degree of the staining was analyzed. As a result, it was determined that the degrees of the staining of stress treatments were increased than those of before the stress treatments (FIG. 2).

AtAIRP2 gene = AtAIRP2 gene expression by RT-PCR after stress treatment; format: in vivo, Arabidopsis thaliana; settings: 100 μM ABA, 1.5 hour and 3 hours, 2-week-old wild type seedlings
Method: In order to determine expressions of the AtAIRP2 gene to drought stress, the wild type Arabidopsis thaliana seedlings which were grown on medium for 2 weeks were exposed in the air, and sampled after 1 hour and 2 hours. In order to determine expressions of the AtAIRP2 gene to salt stress, the wild type Arabidopsis thaliana seedlings which were grown on medium for 2 weeks were treated with 300 mM sodium chloride, and sampled after 1.5 hour and 3 hours. In order to determine expressions of the AtAIRP2 gene to low-temperature stress, the wild type Arabidopsis thaliana seedlings which were grown on medium for 2 weeks were incubated at 4° C. for 12 hours and 24 hours, and sampled. […]
as §1, with “After treatments of low-temperature (12 hours and 24 hours), drought (1 hour and 2 hours), salt (1.5 hour and 3 hours) and ABA hormone (1.5 hour and 3 hours) stresses, RNA from each of samples was extracted to analyze the gene expression patterns.” left out

E3 ubiquitin ligase = biological target: T1, E3 ubiquitin ligase; assay: Self-ubiquitination assay (Western blot, anti-MBP and anti-ubiquitin); format: biochemical; settings: with UBA1, UBC8, ubiquitin, 30° C., 1 hour
Method: For the enzymatic activity analysis of the AtAIRP2 protein, the ORF of the AtAIRP2 gene was subcloned into pMAL-X vector in-frame with MBP (maltose-binding protein). 40 mM Tris-HCI, pH 7.5, 5 mM MgCl2, 2 mM ATP, 2 mM dithiothreitol (DTT), 300 ng/μL ubiquitin (Sigma), 25 μM MG132 (A.G. Scientific Inc.), 500 ng UBA1 (ABRC, www.arabidopsis.org), 500 ng UBC8 (ABRC, www.arabidopsis.org) and 500 ng MBP-AtAIRP2 were added to each of tubes and incubated at 30° C. After addition of sample buffer solution, the resultant was heated at 100° C. for 5min, and performed by Western blot using anti-MBP (New England Bio Labs) and anti-ubiquitin (Santa Cruz) antibodies.
Maltose-binding protein (MBP) was bound to the AtAIRP2 proteins. Then, the MBP-AtAIRP2 was incubated with UBA1, UBC8, ubiquitin and AtAIRP2 at 30° C. for 1 hour to perform Self-Ubiquitination, and performed by Western blot using MBP- and ubiquitin-specific antibodies to analyze changes in the protein levels. As a result, it was determined that the molecular weight of the AtAIRP2 protein was increased through Western blot using anti-MBP antibody, and the increase was induced due to ubiquitin (FIG. 3).

| Molecule | GUS signals (AtAIRP2 promoter activity) (AtAIRP2 gene promoter) | AtAIRP2 gene expression (AtAIRP2 gene) | enzymatic activity of E3 ubiquitin ligase (E3 ubiquitin ligase) |
| --- | --- | --- | --- |
| CC1=CC(=O)CC(C)(C)C1(O)/C=C/C(C)=C\C(=O)O (stereo not drawn) [ABA] | markedly induced | induced | – |
| B1 | – | – | possessed ability for enzymatic activity of E3 ubiquitin ligase |
